According to patent publication US8962681B2, “Use of aminoacetonitrile derivatives against endoparasites” (Zoetis LLC, priority 2011, dated 2015):

Legend:
[1] = system: L4 stage larvae of D. immitis; experiment: L4 stage larvae motility/kill assay; type: cell-based, Dirofilaria immitis; conditions: screened at 10 μM in duplicate, 96-well plate; motility observed at 4, 24, 48 and 72 hours; endpoint defined as ED80 (80% of larvae killed)
[2] = system: Dirofilaria immitis microfilariae; experiment: in vitro microwell motility assay against heartworm microfilariae; type: cell-based; conditions: microfilaria from canine blood, 384 well plate, 72 hours incubation at 37° C. and 5% CO2, LemnaTec Scanalyzer

| Compound | active against L4 D. immitis at 10 μM [1] | ED50 (dose at which the overall microfilaria motility was reduced by 50% compared to that of an untreated control) [2] |
| --- | --- | --- |
| CC(C#N)(NC(=O)c1ccc(S(F)(F)(F)(F)F)cc1)C1Cc2cc(C#N)cc(Cl)c2O1 (stereo not shown) [test compound 80, N-[1-(7-chloro-5-cyano-2,3-dihydro-1-benzofuran-2-yl)-1-cyanoethyl]-4-(pentafluorothio)benzamide] | active | 3.3 µM |
| CC(C#N)(COc1ccc(-c2ccncc2)cc1C(F)(F)F)NC(=O)c1ccc(S(F)(F)(F)(F)F)cc1 (stereo not shown) [test compound 81, N-{1-cyano-1-methyl-2-[4-pyridin-4-yl-2-(trifluoromethyl)phenoxy]ethyl}-4-(pentafluorothio)benzamide] | active | 3.3 µM |
